This passage reports TGI and GI50 results from PubChem BioAssay (NCI).

Holding throughout (assay): inhibition of tumour cell growth, NCI panel, 48 h
The subject of assay [1] is A549 NSCLC.
Assay [2] deals with HCT-15 colon.
For assay [3], the system named is HOP-62 NSCLC.
In assay [4] the test system is M14 melanoma.
Assay [5] relates to OVCAR-8 ovarian.
For assay [6], the system named is RPMI-8226 leukemia.
Assay [7] deals with SF-268 CNS.
Assay [8] has as its system SK-MEL-2 melanoma.
In assay [9] the test system is NCI-H460 lung.

The structures appear in SMILES notation.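 Protocol summary: plate cells (96-well), add compound at 5 concentrations, incubate 48 h, interpolate endpoints linearly. The concentration for 50% growth inhibition is given as GI50. TGI: total growth inhibition.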 Bounds are passed on as bounds.

For the compound `O=C(O/N=C1/CCCC/C1=C\c1ccccc1)c1ccccc1`, the TGI in assay [1], in [2], in assay [3], in [4], in assay [5] and in [6] was > 100 µM in each case. Moreover, the TGI in [7] and in [8] was > 100 µM throughout.

For the compound `CC(=O)Nc1ccc(C(=O)NN2C(=O)C(Cl)C2c2ccccc2)cc1` (stereo unspecified), the TGI in assay [1], in [3], in [4], in assay [9], in [5] and in assay [7] was > 100 µM each time. Also, the TGI in assay [8] is > 100 µM.

As to `O=C1OC(c2ccccc2)=N/C1=C/C=C/c1ccco1`, the TGI in [1], in assay [2], in assay [4], in assay [5], in assay [7] and in assay [8] was > 100 µM in each case.

In the case of `O=[N+]([O-])c1nccn1CC(O)c1ccc(F)cc1` (stereo unspecified), the TGI in assay [1], in [2], in assay [3], in [4], in assay [9] and in assay [5] was > 100 µM throughout. In addition, the TGI in assay [6], in assay [7] and in [8] was > 100 µM throughout.

For the compound `CCOC(=O)Oc1c(OC)cc(C(=O)NC2CCc3cc(OC)c(OC)c(OC)c3-c3ccc(SC)c(=O)cc32)cc1OC` (stereo unspecified), the GI50 is 0.0288 µM in assay [1]; 0.132 µM in assay [2]; 0.0328 µM in assay [3]; 0.0166 µM in assay [4]; 0.016 µM in assay [9]; 0.0155 µM in [5]. The GI50 in assay [7] is 0.0174 µM. Also, the TGI in assay [1] is > 70 µM; in assay [2], 13.6 µM; in [3], 59.6 µM; in [4], 10.7 µM; in assay [5] it was 10.9 µM; in assay [7], 21.4 µM. In assay [8], this compound gave a TGI of 0.0832 µM.

For `C=C(CCCCC)CN1CCCC1[C@@](C)(O)CC(=O)OCC` (stereo partly specified), the TGI in assay [1], in assay [2], in [3], in [4], in assay [9] and in [5] was > 100 µM throughout. Moreover, the TGI in assay [6], in assay [7] and in [8] was > 100 µM throughout.

On to `COC(=O)c1cc2c3ccccc3n(C(C)=O)c2cn1`, for which the TGI in assay [1], in [2], in assay [3], in assay [4], in [9] and in [5] was > 100 µM throughout. Further, the TGI in assay [6] and in assay [8] was > 100 µM in each case.

For `O=C1c2ccccc2C(=O)C1(Cl)C1(S(=O)(=O)O)c2ccccc2-c2ccccc21`, the TGI in assay [1], in assay [2], in assay [3], in assay [4], in [9] and in assay [5] was > 100 µM throughout. Moreover, the TGI in [6] and in assay [7] was > 100 µM in each case.

For the compound `Cc1ccc(SC(C)/C=C/NNC2=NC(c3ccccc3)C(c3ccccc3)=NN2)cc1` (stereo unspecified), the TGI in assay [1], in [2], in [4], in [9], in assay [5] and in assay [6] was > 100 µM each time. In addition, the TGI in [7] and in assay [8] was > 100 µM throughout.

As for `COC(=O)C(C(=O)C(=O)Nc1cccc(OC)c1)c1cnc2ccccc2n1` (stereo unspecified), the TGI in [1], in assay [2], in assay [3], in assay [4], in [9] and in assay [5] was > 100 µM each time. For the same compound, the TGI in [6], in assay [7] and in assay [8] was > 100 µM in each case.

Take `Cc1ccccc1N1C(=O)/C(=C/c2ccc(N(CCC#N)CCC#N)cc2)N=C1c1cc([N+](=O)[O-])ccc1Cl`: the TGI in assay [2], in [3], in [4], in assay [9], in [6] and in assay [7] was > 100 µM throughout. Moreover, the TGI in [8] was > 100 µM.

Consider `CCCCOC(=O)C1C(c2ccc(Cl)cc2)NC(c2ccc(Cl)cc2)C(C(=O)OCCCC)S1(=O)=O` (stereo unspecified), for which the TGI in assay [1], in assay [2], in assay [3], in [4], in [9] and in [5] was > 100 µM throughout. Also, the TGI in assay [6], in assay [7] and in assay [8] was > 100 µM throughout.

Regarding `COc1ccc(C2S/C(=C\c3ccccc3O)C(=O)N2NC(=O)Cc2ccccc2)cc1` (stereo unspecified), the TGI in assay [1], in assay [2], in [3], in assay [4], in assay [9] and in assay [5] was > 100 µM throughout. In addition, the TGI in assay [6], in assay [7] and in assay [8] was > 100 µM throughout.

For `COc1ccc(OC)c(NC(=O)C(=O)NNC(=O)c2sc(NNC(C)=O)nc2C)c1`, the TGI in assay [1], in assay [2], in assay [3], in [4], in assay [9] and in [5] was > 100 µM throughout. The TGI in assay [6] is > 100 µM; in assay [7] it was 75.9 µM; in assay [8], > 100 µM.

With `O=S(=O)([O-])c1ccc2c(c1)-c1nc-2nc2[n-]c(nc3nc(nc4[n-]c(n1)c1ccc(S(=O)(=O)[O-])cc41)-c1cc(S(=O)(=O)[O-])ccc1-3)c1ccc(S(=O)(=O)[O-])cc21.[Cu+2].[Na+]`, the GI50 was 24.1 µM in assay [1]; 0.977 µM in [2]; > 100 µM in assay [3]; > 37.4 µM in assay [4]; 4.65 µM in assay [9]; > 100 µM in [5]. Further, the GI50 is > 56.4 µM in assay [6], > 69.8 µM in assay [7] and > 100 µM in assay [8]. Besides, the TGI in assay [1] was > 100 µM; in assay [2], 36.4 µM; in assay [3], > 100 µM; in [4], > 100 µM; in assay [9], > 100 µM; in [5], > 100 µM. Moreover, the TGI in assay [6] was > 74.3 µM; in assay [7], > 100 µM; in [8], > 100 µM.

`COC(C)(C)C1=CCC(C)CC1` (stereo unspecified): the TGI in [1], in [2], in [3], in assay [4], in [9] and in assay [5] was > 100 µM each time. The TGI in [6] and in [7] was > 100 µM each time.

Regarding `CCCCN(CCCC)CC(C(=O)Nc1ccc([N+](=O)[O-])cc1[N+](=O)[O-])/C(C)=N\NC(=S)NN` (stereo unspecified), the TGI in assay [1], in assay [3], in assay [4], in assay [9], in [5] and in assay [6] was > 100 µM each time. For the same compound, the TGI in [7] and in assay [8] was > 100 µM each time.

Take `CC1=CC(/C=C(\C)CCCc2ccoc2)C2(OC(=O)C(C)=C2O)[C@H]2C1CC[C@@H]2C` (stereo partly specified): the TGI is > 100 µM in assay [1]; 39.8 µM in assay [2]; 60.9 µM in [4]; > 100 µM in assay [5]; 59.6 µM in assay [6].

For `O=[n+]1c2c(n([O-])c3ccccc31)CCCCCCCCCC2`, the TGI in [1], in assay [2], in assay [4], in assay [6], in [7] and in assay [8] was > 100 µM throughout.

On to `CC1=Nc2ccccc2C1C(Cc1ccccc1N)c1c(C)[nH]c2ccccc12` (stereo unspecified), for which the TGI was 32.8 µM in [1]; 51 µM in assay [2]; 27.9 µM in [3]; 28.3 µM in assay [4]; 35.2 µM in assay [9]; 32.6 µM in assay [5]. Moreover, the TGI in assay [6] worked out at 52.4 µM; in assay [7], 21.5 µM; in [8], 23 µM.

In the case of `COC(=O)C1=C(c2ccc3c(c2)OCO3)O[C@H](c2cc(OC)c(OC)c(OC)c2)[C@H]1COC(C)=O`, the TGI in assay [1] is 47.8 µM; in [2], > 100 µM; in assay [3], 84.7 µM; in assay [4], 13.6 µM; in [9], > 100 µM; in assay [5] it was 93.6 µM. For the same compound, the TGI in assay [6], in [7] and in assay [8] was > 100 µM in each case.

For the compound `O=c1nc2occc2cn1C1CC(O)C(CO)O1` (stereo unspecified), the TGI in assay [1], in assay [2], in assay [3], in assay [4], in [9] and in [5] was > 100 µM in each case. Also, the TGI in assay [6] and in [7] was > 100 µM throughout.

`COC(=O)C12C3C4C1C1C2C3C41C(=O)OC(C)(C)C` (stereo unspecified): the TGI in assay [1], in assay [2], in assay [3], in [4], in assay [9] and in [5] was > 100 µM throughout. The TGI in assay [6] was > 72.3 µM; in assay [7], > 100 µM; in [8], > 100 µM.

In the case of `CNC(=S)NC1CCCCC1NC(=S)NC` (stereo unspecified), the TGI in assay [1], in assay [2], in [3], in assay [4], in [9] and in [5] was > 100 µM each time. For the same compound, the TGI in assay [6], in assay [7] and in assay [8] was > 100 µM throughout.

As to `CC(C)(C)[SiH]12(OC(C(F)(F)F)(C(F)(F)F)c3ccccc31)OC(C(F)(F)F)(C(F)(F)F)c1ccccc12`, the TGI was 19.9 µM in [1]; 4.77 µM in [2]; 12.7 µM in assay [4]; 6.68 µM in [9]; 28.9 µM in [5]; > 100 µM in assay [6]. Moreover, the TGI in [8] turned out to be 31.1 µM.

As for `CC(=O)O.CC(=O)O.CC(=O)O.CC(=O)O.CC(=O)O.CC(=O)O.O.[Ti].[Ti]`, the GI50 in assay [1], in [2], in assay [3], in assay [4], in assay [5] and in assay [6] was > 100 µM throughout. For the same compound, the GI50 in assay [7] and in assay [8] was > 100 µM each time. The TGI in [1], in assay [2], in assay [3], in assay [4], in [5] and in [6] was > 100 µM throughout. Besides, the TGI in [7] and in [8] was > 100 µM in each case.

As to `Cc1ccc(S(=O)(=O)NCC2CCCCC2=O)cc1` (stereo unspecified), the TGI in [1], in assay [2], in assay [4], in assay [9], in [5] and in assay [6] was > 100 µM each time. For the same compound, the TGI in [7] and in assay [8] was > 100 µM each time.

On to `CC(C)(C)OC(=O)NCC(=O)OCc1ccccc1`, for which the TGI in [1], in [2], in assay [3], in assay [4], in assay [9] and in assay [5] was > 100 µM throughout. Besides, the TGI in [7] and in [8] was > 100 µM in each case.

Regarding `Cc1cc(Br)cc(C)c1NC(=O)C(=O)C(C(=O)c1ccc2ccccc2c1)C1OC(=O)c2ccccc21` (stereo unspecified), the TGI is > 100 µM in [1]; 42.3 µM in assay [2]; 18.7 µM in [3]; 30.2 µM in assay [4]; 20.9 µM in assay [9]; 22.8 µM in assay [5]. In addition, the TGI in assay [6] is > 80.5 µM; in assay [8], 34.5 µM.
